Among the test systems are COLO 205 colon; HCT-15 colon; A549 NSCLC; K-562 leukemia; U251 CNS; MDA-MB-435; IGROV1 ovarian; PC-3 prostate; HOP-62 NSCLC; HOP-92 NSCLC.
Common to all, as to experiment: NCI-60 cell line screen, 48 h

Structures are written as SMILES.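 Following 48 hours of exposure in 96-well plates, responses at five concentrations were used to interpolate endpoints linearly. TGI is the concentration that stops growth completely.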

Regarding `c1cc(CSc2ncnc3nc[nH]c23)ccn1`, the TGI in the experiment on COLO 205 colon, with HCT-15 colon, in the experiment on A549 NSCLC, with K-562 leukemia, with U251 CNS and in the experiment on MDA-MB-435 was above 100 µM in each case. The TGI with IGROV1 ovarian, in the experiment on PC-3 prostate, in the experiment with HOP-62 NSCLC and in the experiment with HOP-92 NSCLC was above 100 µM in each case.
As for `CC(=O)Oc1cc(-c2oc3cc(OC(C)=O)c(C4OC(CO)C(O)C(O)C4O)c(OC(C)=O)c3c(=O)c2O)c(OC(C)=O)cc1O` (stereo not given), the TGI in the experiment with COLO 205 colon, with HCT-15 colon, in the experiment on A549 NSCLC, in the experiment with K-562 leukemia, in the experiment on U251 CNS and in the experiment on MDA-MB-435 was above 100 µM throughout. Also, the TGI in the experiment on IGROV1 ovarian, with PC-3 prostate, in the experiment on HOP-62 NSCLC and with HOP-92 NSCLC was above 100 µM throughout.
Turning to `C/C(=N\O)c1cccc(Nc2c3ccccc3nc3occc23)c1`, the TGI is above 100 µM with COLO 205 colon; above 100 µM in the experiment on HCT-15 colon; 58.5 µM in the experiment on A549 NSCLC; above 100 µM in the experiment with K-562 leukemia; above 100 µM with U251 CNS; 5.73 µM in the experiment on MDA-MB-435. The TGI in the experiment with IGROV1 ovarian was 13.2 µM; in the experiment on PC-3 prostate, above 100 µM; in the experiment with HOP-62 NSCLC, 17.5 µM; with HOP-92 NSCLC, 47.9 µM.
For `CC(C)c1c(O[Si](C(C)C)(C(C)C)C(C)C)cc2c(c1O)CC[C@H]1C(C)(C)CCC[C@]21C`, the TGI in the experiment on COLO 205 colon, in the experiment with HCT-15 colon, with A549 NSCLC, with K-562 leukemia, in the experiment on U251 CNS and in the experiment on MDA-MB-435 was above 100 µM each time. Further, the TGI in the experiment on IGROV1 ovarian, in the experiment with PC-3 prostate, with HOP-62 NSCLC and in the experiment with HOP-92 NSCLC was above 100 µM in each case.
In the case of `CN(/N=C/C=N/N(C)C1=NCCN1)C1=NCCN1`, the TGI in the experiment with COLO 205 colon, in the experiment on HCT-15 colon, in the experiment on A549 NSCLC, in the experiment with K-562 leukemia, in the experiment on U251 CNS and in the experiment on MDA-MB-435 was above 100 µM throughout. In addition, the TGI in the experiment with IGROV1 ovarian, with PC-3 prostate, in the experiment on HOP-62 NSCLC and in the experiment with HOP-92 NSCLC was above 100 µM each time.
Take `S=C(S)NCCN1CCNCC1`: the TGI with COLO 205 colon was 43.7 µM; with HCT-15 colon it was above 100 µM; with A549 NSCLC, above 100 µM; with K-562 leukemia, above 100 µM; with U251 CNS, above 100 µM; in the experiment with MDA-MB-435, above 100 µM. The TGI in the experiment with IGROV1 ovarian, in the experiment with PC-3 prostate, in the experiment with HOP-62 NSCLC and in the experiment with HOP-92 NSCLC was above 100 µM each time.
Consider `O=C(CCCn1ccnc1[N+](=O)[O-])NCCn1cnc([N+](=O)[O-])n1`, for which the TGI in the experiment with COLO 205 colon, in the experiment with HCT-15 colon, in the experiment with A549 NSCLC, in the experiment with K-562 leukemia, in the experiment on U251 CNS and with MDA-MB-435 was above 100 µM in each case. Also, the TGI in the experiment with IGROV1 ovarian, with PC-3 prostate, in the experiment with HOP-62 NSCLC and in the experiment on HOP-92 NSCLC was above 100 µM each time.
Regarding `O=CC1OC(=O)c2cc(O)c(O)c(O)c2-c2c(cc(O)c(O)c2O)C(=O)OC1C1OC(=O)c2cc(O)c(O)c(O)c2-c2c(O)c(O)c3oc(=O)c4c(c(O)c(O)c5oc(=O)c2c3c54)-c2c(cc(O)c(O)c2O)C(=O)OCC1O` (stereo not given), the TGI in the experiment on COLO 205 colon is above 100 µM; in the experiment on HCT-15 colon, above 100 µM; in the experiment with A549 NSCLC it was above 100 µM; in the experiment on K-562 leukemia, 71.8 µM; in the experiment with U251 CNS, 44.8 µM; with MDA-MB-435, 46.4 µM. Besides, the TGI with IGROV1 ovarian, in the experiment on PC-3 prostate, in the experiment on HOP-62 NSCLC and with HOP-92 NSCLC was above 100 µM each time.
With `CC(C)=CCc1cc(/C=C/C(=O)O)cc(CC=C(C)C)c1O`, the TGI in the experiment on COLO 205 colon, with HCT-15 colon, with A549 NSCLC, with K-562 leukemia, in the experiment on U251 CNS and in the experiment on MDA-MB-435 was above 100 µM throughout. The TGI in the experiment with IGROV1 ovarian, with PC-3 prostate, in the experiment on HOP-62 NSCLC and with HOP-92 NSCLC was above 100 µM throughout.
Consider `COc1ccc(Nc2cc(=O)[nH]c(=O)[nH]2)cc1`, for which the TGI with COLO 205 colon, with HCT-15 colon, in the experiment with A549 NSCLC, in the experiment with K-562 leukemia, in the experiment on U251 CNS and in the experiment on MDA-MB-435 was above 100 µM each time. For the same molecule, the TGI with IGROV1 ovarian, in the experiment on PC-3 prostate, with HOP-62 NSCLC and with HOP-92 NSCLC was above 100 µM in each case.
In the case of `CC(C)C(/C=C/c1ccc(Cl)cc1)=N\NC(=O)N/N=C(/C=C/c1ccc(Cl)cc1)C(C)C`, the TGI was above 100 µM in the experiment on COLO 205 colon; above 100 µM in the experiment with HCT-15 colon; 41.5 µM in the experiment with A549 NSCLC; above 100 µM with K-562 leukemia; 30.6 µM in the experiment on U251 CNS; 87.6 µM with MDA-MB-435. The TGI was 94.7 µM with IGROV1 ovarian, above 100 µM in the experiment on PC-3 prostate, 47.3 µM in the experiment on HOP-62 NSCLC and 56.9 µM in the experiment on HOP-92 NSCLC.
Regarding `C[C@@H](c1ccccc1)N1CO[C@@]2(C#Cc3ccc4c(c3)OCO4)CCC[C@@H]12`, the TGI in the experiment with COLO 205 colon came to 31.4 µM; in the experiment with HCT-15 colon it was 27.4 µM; in the experiment on A549 NSCLC it was 29.6 µM; in the experiment with K-562 leukemia, 96.2 µM; in the experiment on U251 CNS it was 28.1 µM; with MDA-MB-435 it was 28.2 µM. In addition, the TGI in the experiment on IGROV1 ovarian amounted to 22.9 µM; in the experiment on PC-3 prostate, 27.1 µM; in the experiment with HOP-62 NSCLC it was 29.3 µM; in the experiment on HOP-92 NSCLC, 19.7 µM.
For `O=c1c2cc([N+](=O)[O-])ccc2n2n1CCCCC2`, the TGI with COLO 205 colon, in the experiment on HCT-15 colon, with A549 NSCLC, in the experiment on K-562 leukemia, in the experiment with U251 CNS and with MDA-MB-435 was above 100 µM each time. The TGI with IGROV1 ovarian, in the experiment with PC-3 prostate, in the experiment with HOP-62 NSCLC and in the experiment on HOP-92 NSCLC was above 100 µM throughout.

Source of the values: PubChem BioAssay (NCI).
